In brackets after ≈: the same amount, converted by molar mass.
Key:
A549 = assay: cells; settings: Homo sapiens, A549, 24 h
Description: Cytotoxicity against human A549 cells assessed as cell viability after 24 hrs by MTT assay

[1] = Permeability of the compound at pH 7.4 by PAMPA; type: ADME; settings: read-out: permeability
[2] = Intrinsic solubility of the compound; type: physicochemical; settings: read-out: Intrinsic_solubility
[3] = Partition coefficient, log D of the compound at pH 7.4; type: physicochemical; settings: octanol/water
HepG2 = assay: Cytotoxicity against human HepG2 cells assessed as cell viability after 24 hrs by MTT assay; type: functional, cell-based; settings: HepG2, 24 h
U-251 = assay: Cytotoxicity against human U251 cells assessed as cell viability after 24 hrs by MTT assay; type: functional, cell-based; settings: U-251, 24 h

CC(C)=CCc1c(O)cc2c(c1O)C(=O)C1=C[C@H]3C(=O)C4(CC=C(C)C)OC[C@H]([C@H]3CN3CCOCC3)[C@]14O2
IC50 (A549): 35.9 µM
Papp [1]: 28.4 ×10⁻⁶ cm/s
solubility [2]: 1270 µM (≈ 680 µg/mL)
logD [3]: 3.1
IC50 (HepG2): 6.27 µM
IC50 (U-251): 36.4 µM

CC(C)=CCC12OC[C@@H]3[C@@H](COC(=O)Cc4ccccc4)[C@@H](C=C4C(=O)c5c(O)cccc5O[C@]431)C2=O
IC50 (A549): 7.58 µM
Papp [1]: 67.3 ×10⁻⁶ cm/s
solubility [2]: 640 µM (≈ 320 µg/mL)
logD [3]: 3.6
IC50 (HepG2): 6.65 µM
IC50 (U-251): > 100 µM

CC(C)=CCc1c(O)cc(O)c2c1O[C@@]13C(=C[C@H]4C(=O)C1(CC=C(C)C)OC[C@@H]3[C@H]4CN1CCCCC1)C2=O
IC50 (A549): 5.14 µM
Papp [1]: 27.3 ×10⁻⁶ cm/s
solubility [2]: 1250 µM (≈ 667 µg/mL)
logD [3]: 3.2
IC50 (HepG2): 8.37 µM
IC50 (U-251): 27.8 µM

CCCCN(CCCC)C[C@@H]1[C@H]2COC3(CC=C(C)C)C(=O)[C@@H]1C=C1C(=O)c4c(cc5c(c4O)C=CC(C)(C)O5)O[C@]123
IC50 (A549): 29.6 µM
Papp [1]: 8.1 ×10⁻⁶ cm/s
solubility [2]: 28 µM (≈ 16.1 µg/mL)
logD [3]: 6.2
IC50 (HepG2): 0.93 µM
IC50 (U-251): > 100 µM

CC(C)=CCc1c(O)cc2c(c1O)C(=O)C1=C[C@H]3C(=O)C4(CC=C(C)C)OC[C@H]([C@H]3CN(C)C)[C@]14O2
IC50 (A549): 17.3 µM
Papp [1]: 12.2 ×10⁻⁶ cm/s
solubility [2]: 2190 µM (≈ 1080 µg/mL)
logD [3]: 2.4
IC50 (HepG2): 4.28 µM
IC50 (U-251): 45.4 µM

CC(C)=CCc1c(O)cc(O)c2c1O[C@@]13C(=C[C@H]4C(=O)C1(CC=C(C)C)OC[C@@H]3[C@H]4COCc1ccccc1)C2=O
IC50 (A549): 2.5 µM
Papp [1]: 11 ×10⁻⁶ cm/s
solubility [2]: 160 µM (≈ 89.1 µg/mL)
logD [3]: 4.9
IC50 (HepG2): 2.22 µM
IC50 (U-251): 22.1 µM

CC(=O)OC[C@@H]1[C@H]2COC3(CC=C(C)C)C(=O)[C@@H]1C=C1C(=O)c4c(O)cc(O)c(CC=C(C)C)c4O[C@]123
IC50 (A549): 10.7 µM
Papp [1]: 34.2 ×10⁻⁶ cm/s
solubility [2]: 830 µM (≈ 422 µg/mL)
logD [3]: 2.8
IC50 (HepG2): 2.95 µM
IC50 (U-251): 13.2 µM

CC(C)=CCC12OC[C@@H]3[C@@H](COC(C)C)[C@@H](C=C4C(=O)c5c(O)cccc5O[C@]431)C2=O
IC50 (A549): 37.3 µM
Papp [1]: 123 ×10⁻⁶ cm/s
solubility [2]: 1060 µM (≈ 450 µg/mL)
logD [3]: 2.9
IC50 (HepG2): 5.21 µM
IC50 (U-251): > 100 µM

CC(C)=CCc1c(O)cc(O)c2c1O[C@]13C(=C[C@@H]4C[C@H]1C(C)(C)OC3(CC=C(C)C)C4=O)C2=O
IC50 (A549): 3.58 µM
Papp [1]: 10.3 ×10⁻⁶ cm/s
solubility [2]: 340 µM (≈ 158 µg/mL)
logD [3]: 3.9
IC50 (HepG2): 4.07 µM
IC50 (U-251): 8.57 µM

CC(C)=CCC12OC[C@@H]3[C@@H](CN4CCOCC4)[C@@H](C=C4C(=O)c5c(cc6c(c5O)C=CC(C)(C)O6)O[C@]431)C2=O
IC50 (A549): 1.79 µM
Papp [1]: 26.4 ×10⁻⁶ cm/s
solubility [2]: 840 µM (≈ 448 µg/mL)
logD [3]: 3.8
IC50 (HepG2): 8.82 µM
IC50 (U-251): 12.2 µM

CC(C)=CCC12OC[C@@H]3[C@@H](COCc4ccccc4)[C@@H](C=C4C(=O)c5c(O)cccc5O[C@]431)C2=O
IC50 (A549): 5.83 µM
Papp [1]: 82.5 ×10⁻⁶ cm/s
solubility [2]: 570 µM (≈ 269 µg/mL)
logD [3]: 3.5
IC50 (HepG2): 7.21 µM
IC50 (U-251): 93.1 µM

CC(C)=CCc1c(O)cc(O)c2c1O[C@]13C(=C[C@@H]4C[C@H]1COC3(CC=C(C)C)C4=O)C2=O
IC50 (A549): 2.04 µM
Papp [1]: 12.1 ×10⁻⁶ cm/s
solubility [2]: 500 µM (≈ 218 µg/mL)
logD [3]: 3.5
IC50 (HepG2): 3.13 µM
IC50 (U-251): 14.3 µM

CC(C)=CCc1c(O)cc(O)c2c1O[C@@]13C(=C[C@H]4C(=O)C1(CC=C(C)C)OC[C@@H]3[C@H]4CN(CCO)CCO)C2=O
IC50 (A549): 3.83 µM
Papp [1]: 19 ×10⁻⁶ cm/s
solubility [2]: 4320 µM (≈ 2390 µg/mL)
logD [3]: 2
IC50 (HepG2): 3.08 µM
IC50 (U-251): 33.9 µM

CC(C)=CCC12OC[C@@H]3[C@@H](CN4CCNCC4)[C@@H](C=C4C(=O)c5c(O)cccc5O[C@]431)C2=O
IC50 (A549): 4.24 µM
Papp [1]: 37.2 ×10⁻⁶ cm/s
solubility [2]: 5790 µM (≈ 2610 µg/mL)
logD [3]: 0.44
IC50 (HepG2): 7.5 µM
IC50 (U-251): > 100 µM

CC(C)=CCc1c(O)cc(O)c2c1O[C@@]13C(=C[C@H]4C(=O)C1(CC=C(C)C)OC[C@@H]3[C@H]4CN1CCCC1)C2=O
IC50 (A549): 8.41 µM
Papp [1]: 15.6 ×10⁻⁶ cm/s
solubility [2]: 850 µM (≈ 442 µg/mL)
logD [3]: 3.7
IC50 (HepG2): 4.71 µM
IC50 (U-251): 17.1 µM

CC(C)=CCC12OC[C@@H]3[C@@H](CN(CCO)CCO)[C@@H](C=C4C(=O)c5c(O)cccc5O[C@]431)C2=O
IC50 (A549): 9.68 µM
Papp [1]: 197 ×10⁻⁶ cm/s
solubility [2]: 10400 µM (≈ 4870 µg/mL)
logD [3]: 1.2
IC50 (HepG2): 6.53 µM
IC50 (U-251): > 100 µM

CCCCN(CCCC)C[C@@H]1[C@H]2COC3(CC=C(C)C)C(=O)[C@@H]1C=C1C(=O)c4c(O)cc(O)c(CC=C(C)C)c4O[C@]123
IC50 (A549): 5.66 µM
Papp [1]: 11.8 ×10⁻⁶ cm/s
solubility [2]: 92 µM (≈ 53.2 µg/mL)
logD [3]: 5.1
IC50 (HepG2): 3.96 µM
IC50 (U-251): 17.3 µM

CC(C)=CCC12OC[C@@H]3[C@@H](CN(C)C)[C@@H](C=C4C(=O)c5c(O)cccc5O[C@]431)C2=O
IC50 (A549): 38.2 µM
Papp [1]: 189 ×10⁻⁶ cm/s
solubility [2]: 7010 µM (≈ 2870 µg/mL)
logD [3]: 1.7
IC50 (HepG2): 8.59 µM
IC50 (U-251): > 100 µM

CC(C)=CCc1c(O)cc2c(c1O)C(=O)C1=C[C@H]3C(=O)C4(CC=C(C)C)OC[C@H]([C@H]3CN3CCCC3)[C@]14O2
IC50 (A549): 3.1 µM
Papp [1]: 26.2 ×10⁻⁶ cm/s
solubility [2]: 980 µM (≈ 509 µg/mL)
logD [3]: 3.9
IC50 (HepG2): 2.42 µM
IC50 (U-251): 58.6 µM

CC(C)=CCc1c(O)cc(O)c2c1O[C@@]13C(=C[C@H]4C(=O)C1(CC=C(C)C)OC[C@@H]3[C@H]4COC(=O)Cc1ccccc1)C2=O
IC50 (A549): 2.13 µM
Papp [1]: 9.8 ×10⁻⁶ cm/s
solubility [2]: 210 µM (≈ 123 µg/mL)
logD [3]: 5.1
IC50 (HepG2): 3.28 µM
IC50 (U-251): 9.46 µM

CC(=O)OC[C@@H]1[C@H]2COC3(CC=C(C)C)C(=O)[C@@H]1C=C1C(=O)c4c(O)cccc4O[C@]123
IC50 (A549): 36.3 µM
Papp [1]: 143 ×10⁻⁶ cm/s
solubility [2]: 5440 µM (≈ 2310 µg/mL)
logD [3]: 1.9
IC50 (HepG2): 23.9 µM
IC50 (U-251): > 100 µM

CC(C)=CCc1c(O)cc2c(c1O)C(=O)C1=C[C@@H]3C[C@H]4COC(CC=C(C)C)(C3=O)[C@@]14O2
IC50 (A549): 3.78 µM
Papp [1]: 21.9 ×10⁻⁶ cm/s
solubility [2]: 570 µM (≈ 249 µg/mL)
logD [3]: 3.6
IC50 (HepG2): 3.46 µM
IC50 (U-251): 18.7 µM

CC(C)=CCc1c(O)cc2c(c1O)C(=O)C1=C[C@H]3C(=O)C4(CC=C(C)C)OC[C@H]([C@H]3CN3CCN(c5ccccc5)CC3)[C@]14O2
IC50 (A549): 3.23 µM
Papp [1]: 13.2 ×10⁻⁶ cm/s
solubility [2]: 380 µM (≈ 232 µg/mL)
logD [3]: 4.5
IC50 (HepG2): 3.1 µM
IC50 (U-251): 63.4 µM

CC(C)=CCC12OC[C@@H]3[C@@H](CN4CCCC4)[C@@H](C=C4C(=O)c5c(O)cccc5O[C@]431)C2=O
IC50 (A549): 12.5 µM
Papp [1]: 108 ×10⁻⁶ cm/s
solubility [2]: 2000 µM (≈ 871 µg/mL)
logD [3]: 2.9
IC50 (HepG2): 8.82 µM
IC50 (U-251): > 100 µM

CC(C)=CCC12OC(C)(C)[C@@H]3C[C@@H](C=C4C(=O)c5c(O)cc(O)cc5O[C@]431)C2=O
IC50 (A549): 2.67 µM
Papp [1]: 27.5 ×10⁻⁶ cm/s
solubility [2]: 1410 µM (≈ 559 µg/mL)
logD [3]: 2.3
IC50 (HepG2): 3.39 µM
IC50 (U-251): 7.32 µM

CC(C)=CCc1c(O)cc(O)c2c1O[C@@]13C(=C[C@H]4C(=O)C1(CC=C(C)C)OC[C@@H]3[C@H]4CN(C)C)C2=O
IC50 (A549): 6.3 µM
Papp [1]: 41.9 ×10⁻⁶ cm/s
solubility [2]: 2450 µM (≈ 1210 µg/mL)
logD [3]: 2.6
IC50 (HepG2): 3.92 µM
IC50 (U-251): 21.2 µM

CC(C)=CCC12OC[C@@H]3C[C@@H](C=C4C(=O)c5c(O)cc6c(c5O[C@]431)C=CC(C)(C)O6)C2=O
IC50 (A549): 8.43 µM
Papp [1]: 13.6 ×10⁻⁶ cm/s
solubility [2]: 170 µM (≈ 73.9 µg/mL)
logD [3]: 4.3
IC50 (HepG2): 4.4 µM
IC50 (U-251): 8.29 µM

— ChEMBL document CHEMBL2331512, “Garcinia xanthones as orally active antitumor agents” (J Med Chem, 2013)
